In patent publication US20130059850A1, “AZA-INDOLE DERIVATIVES USEFUL AS MODULATORS OF FAAH” (MERCK SHARP & DOHME CORP., priority 2010, published 2013):
Where “and” joins values, the source holds several entries; their conditions need not be identical. Equal values may be shown once.

Legend:
[1] = target: T1, human FAAH (Fatty Acid Amide Hydrolase) (Homo sapiens, UniProt O00519); assay: FAAH enzyme assay on CHO cell lysate expressing human FAAH (human LY), AAMCA fluorescent substrate; assay type: biochemical; settings: human FAAH_CHO cell lysate
T1 construct: The full length FAAH was subcloned into the mammalian expression vector, pcDEF.neo, using XbaI and EcoRI restriction sites; expressed in transfected cells
T1 sequence (O00519 1-579): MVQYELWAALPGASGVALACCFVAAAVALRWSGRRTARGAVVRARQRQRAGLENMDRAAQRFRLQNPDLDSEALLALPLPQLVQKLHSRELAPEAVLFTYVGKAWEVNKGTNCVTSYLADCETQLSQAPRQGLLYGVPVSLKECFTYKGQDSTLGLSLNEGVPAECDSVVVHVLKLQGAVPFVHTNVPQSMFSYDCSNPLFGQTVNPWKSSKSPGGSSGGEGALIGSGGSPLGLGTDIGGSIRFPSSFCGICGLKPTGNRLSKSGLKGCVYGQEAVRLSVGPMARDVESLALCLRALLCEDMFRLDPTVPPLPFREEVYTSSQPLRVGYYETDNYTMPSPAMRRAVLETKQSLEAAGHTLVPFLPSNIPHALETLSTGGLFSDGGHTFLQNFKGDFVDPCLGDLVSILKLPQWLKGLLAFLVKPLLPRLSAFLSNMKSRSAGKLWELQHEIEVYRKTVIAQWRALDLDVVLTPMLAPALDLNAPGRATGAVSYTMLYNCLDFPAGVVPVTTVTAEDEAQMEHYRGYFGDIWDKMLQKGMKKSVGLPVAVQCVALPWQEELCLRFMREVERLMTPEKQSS
Source text: To assist in assay development stable cell lines for human, murine and rat full length FAAH were developed. Human FAAH cDNA (Accession No: NM_001441.1) was purchased from Origene (Rockville, Md.). The full length FAAH was subcloned into the mammalian expression vector, pcDEF.neo, using XbaI and EcoRI restriction sites and used for stable cell line generation.
CHO cells expressing FAAH were used to prepare either crude cell lysate or microsome fractions. To harvest cells, tissue culture media was decanted, the monolayer washed three times with Ca^++Mg^++ free PBS and cells recovered after […] in enzyme free dissociation media (Millipore Corp, Billerica, Mass.). Cells were collected by centrifuging at 2000 rpm for 15 min. and the cell pellet re-suspended with 50 mM HEPES (pH 7.4) containing 1 mM EDTA and the protease inhibitors aprotinin (1 mg/ml) and leupeptin (100 μM). The suspension was sonicated at 4° C. and the cell lysate recovered after centrifuging at 12,000×g (14,600 rpm, SS34 rotor) for 20 min at 4° C. to form a crude pellet of cell debris, nuclei, peroxisomes, lysosomes, and mitochondria; the supernatant or cell lysate was used for FAAH enzyme assay. In some cases, microsomes fractions enriched in FAAH were prepared by centrifuging the cell lysate further at 27,000 rpm (100,000×g) in SW28 rotor for 50 minutes at 4° C. The pellet containing FAAH-enriched microsomes was re-suspend in 50 mM HEPES, (pH 7.4) 1 mM EDTA, and any remaining DNA sheared by passage of material through a 23 gauge needle and aliquots of enzyme were store at −80° C. prior to use.
(American Radiolabeled Chemicals; 1 mCi/ml) with FAAH (Life Sciences (1995), 56, 1999-2005 and Journal of Pharmacology and Experimented Therapeutics (1997), 283, 729-734), Analytical. Biochemistry (2003), 318, 270-5. In addition, routine assays were performed monitoring hydrolysis of arachidonyl-7-amino-4-methylcoumarin amide (AAMCA) by following increase in fluorescence upon release of 7-amino 4-methyl coumarin (λEX=355 nm, μEM=460 nm). Analytical. Biochemistry (2005). 343, 143-51
Assays are performed on either cell lysate or microsome fractions prepared as described or in whole cell format employing either the fluorescent substrate AAMCA (Cayman chemical, Ann Arbor, Mich.,) or ^3H-anandamide ([ETHANOLAMINE-1-3H] American Radiolabeled Chemicals; 1 mCi/ml). The cell lysate or microsome assay is performed in black PerkinElmer OptiPlates-384F by adding FAAH_CHO (whole cell (human whole cell or human WC), cell lysate (human cell lysate or human LY) or microsome) in assay buffer (50 mM Phosphate, pH 8.0, 1 mM EDTA, 200 mM KCl, 0.2% glycerol, 0.1% fatty acid free BSA) to each well, followed by either DMSO or compound and allowed to incubate at 22-25° C. for fifteen minutes. AAMCA substrate was used to achieve a final concentration of 1 μM and reaction allowed to proceed at room temperature for 1-3 hours. Fluorescent release as a measure of FAAH activity was monitored by reading the plate in a Envision plate Reader (Ex: 360/40 nM; Em: 460/40 nM). Whole cell assay is conducted with cells harvested after rinsing tissue culture flasks three times with Ca^++Mg^++ free PBS, incubating for […] in Enzyme free dissociation media and centrifuging for 5 minutes at 1,000 rpm in table top centrifuge. Cells are resuspended in assay buffer at desired cell number in (4×10^4 cells/assay in 96-well format; 1×10^4 cells/assay in 384-well format) and assayed as described.

[2] = target: T1, human FAAH (Fatty Acid Amide Hydrolase); assay: FAAH whole cell assay on CHO cells expressing human FAAH (human WC), AAMCA fluorescent substrate; assay type: cell-based; settings: human FAAH_CHO whole cell
Summary of the method: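 CHO cells stably expressing full-length human FAAH, harvested with enzyme-free dissociation and resuspended at 4×10^4 cells/assay (96-well) or 1×10^4 (384-well) in 50 mM phosphate pH 8.0, 1 mM EDTA, 200 mM KCl, 0.2% glycerol, 0.1% BSA.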

| SMILES | IC50 [1] | IC50 [2] |
| --- | --- | --- |
| CC(=O)c1ccc(-c2[nH]c3ncccc3c2Sc2ccc(Cl)cc2)s1 [Example B29] | 10.2 nM | 41.1 nM |
| OC1CCN(Cc2[nH]c3ncccc3c2Sc2ccc(Cl)cc2)CC1 [Example J8] | 80.4 nM | 433 nM |
| Cc1n[nH]c(C)c1-c1[nH]c2ncccc2c1Sc1ccc(Cl)cc1 [Example B19] | 65.6 nM | 364 nM |
| OC1CC=C(c2[nH]c3ncccc3c2Sc2ccc(Cl)cn2)CC1 (stereo not drawn) [Example A28] | 11.8 nM and 20.5 nM | 31.6 nM and 60.4 nM |
| OC(c1ccc(-c2[nH]c3ncccc3c2Sc2ccc(Cl)cn2)cc1)C(F)(F)F (stereo not drawn) [Example A25] | 37.6 nM | 147 nM |
| COc1ccc(-c2[nH]c3ncccc3c2Sc2ccc(Cl)cc2)c(OC)n1 [Example B18] | 23.2 nM | 124 nM |
| COc1cccc(-c2[nH]c3ncccc3c2Sc2ccc(Cl)cc2)c1 [Example B7] | 2.23 nM | 18.8 nM |
| O=S(=O)(c1ccc(-c2[nH]c3ncccc3c2Sc2ccc(Cl)cn2)cc1)N1CCOCC1 [Example A21] | 230 nM | 370 nM |
| OC1CC=C(c2[nH]c3ncccc3c2Sc2ccc(Cl)cc2)CC1 (stereo not drawn) [Example B36] | 1.79 nM | 9.53 nM |
| OCCn1cccc2c(Sc3ccc(Cl)cn3)c(-c3ccc4c(c3)OCCO4)nc1-2 [Example E17] | 168 nM | 1300 nM |
| Clc1ccc(Sc2c(-c3ccsc3)[nH]c3ncccc23)cc1 [Example B28] | 217 nM | 1520 nM |
| OCCn1cccc2c(Sc3ccc(Cl)cc3)c(-c3ccc4c(c3)OCO4)nc1-2 [Example E12] | 28.8 nM | 76.7 nM |
| COc1ccc(-c2[nH]c3ncccc3c2Sc2ccc(Cl)cc2)cn1 [Example B43] | 3.42 nM | 18.9 nM |
| COc1cc(-c2nc3n(C)cccc-3c2Sc2ccc(Cl)cc2)cnc1OC [Example E8] | 12.4 nM | 72.7 nM |
| NC(=O)CCn1cccc2c(Sc3ccc(Cl)cc3)c(-c3ccc4c(c3)OCO4)nc1-2 [Example E21] | 317 nM | 1390 nM |
| COc1ccc(Cc2[nH]c3ncccc3c2Sc2ccc(Cl)cc2)cc1 [Example F2, 3-[(4-chlorophenyl)sulfanyl]-2-(4-methoxybenzyl)-1H-pyrrolo[2,3-b]pyridine] | 52.9 nM | 151 nM |
| Cn1cccc2c(Sc3ccc(Cl)cc3)c(C3=CCC(O)CC3)nc1-2 (stereo not drawn) [Example E5] | 8.07 nM | 53.9 nM |
| COc1ccc(C(O)c2[nH]c3ncccc3c2Sc2ccc(Cl)cc2)cc1 (stereo not drawn) [Example J10] | 818 nM | 8410 nM |
| Cn1cccc2c(Sc3ccc(Cl)cc3)c(C(=O)Nc3ccc4c(c3)OCCO4)nc1-2 [Example E18] | 171 nM | 1340 nM |
| O=C(Nc1ccc2c(c1)OCO2)c1[nH]c2ncccc2c1Sc1ccc(Cl)cc1 [Example C15] | 5.9 nM | 9.92 nM |
| Clc1ccc(Sc2c3cccn(CCn4cccc4)c-3nc2-c2ccc3c(c2)OCO3)cc1 [Example E22] | 497 nM | 3220 nM |

| SMILES | IC50 [1] | IC50 [2] |
| --- | --- | --- |
| CC(O)C/C=C/c1[nH]c2ncccc2c1Sc1ccc(Cl)cc1 (stereo not drawn) [Example B38] | 22.5 nM | 352 nM |
| OC(c1ccccc1)c1[nH]c2ncccc2c1Sc1ccc(Cl)cc1 (stereo not drawn) [Example J4, {3-[(4-chlorophenyl)sulfanyl]-1H-pyrrolo[2,3-b]pyridin-2-yl}(phenyl)methanol] | 5870 nM | 10000 nM |
| Clc1ccc(Sc2c(CNCc3ccccc3)[nH]c3ncccc23)cc1 [Example J6, N-benzyl-1-{3-[(4-chlorophenyl)sulfanyl]-1H-pyrrolo[2,3-b]pyridin-2-yl}methanamine] | 132 nM | 400 nM |
| Clc1ccc(Sc2c(-c3ccc4c(c3)OCCO4)[nH]c3ncccc23)nc1 [Example B13] | 2.89 nM | 13 nM |
| O=C1CCC(c2[nH]c3ncccc3c2Sc2ccc(Cl)cc2)CC1 [Example D7, 4-{3-[(4-chlorophenyl)sulfanyl]-1H-pyrrolo[2,3-b]pyridin-2-yl}cyclohexanone] | 14.2 nM | 22.8 nM |
| OCCn1cccc2c(Sc3ccc(Cl)cn3)c(-c3ccc4c(c3)OCO4)nc1-2 [Example E20] | 289 nM | 1040 nM |
| O=C(NC1CCCCC1)c1[nH]c2ncccc2c1Sc1ccc(Cl)cc1 [Example C17] | 30.4 nM | 101 nM |
| Clc1ccc(Sc2c(-c3ccnc4[nH]ccc34)[nH]c3ncccc23)cc1 [Example B27] | 3.18 nM | 30 nM |
| FC(F)(F)c1ccc(/C=C/c2[nH]c3ncccc3c2Sc2ccc(Cl)cc2)cc1 [Example B39] | 370 nM | 370 nM |
| NS(=O)(=O)c1ccc(-c2[nH]c3ncccc3c2Sc2ccc(Cl)cc2)cc1 [Example A7, 4-{3-[(4-chlorophenyl)sulfanyl]-1H-pyrrolo[2,3-b]pyridin-2-yl}benzenesulfonamide] | 4.39 nM | 21.9 nM |
| CC1(C)CCC(NC(=O)c2[nH]c3ncccc3c2Sc2ccc(Cl)cc2)CC1 [Example C9] | 251 nM | 773 nM |
| Clc1ccc(Sc2c(-c3cnn4c3CCCC4)[nH]c3ncccc23)cc1 [Example B35] | 33.5 nM | 344 nM |
| OC(c1ccc(-c2[nH]c3ncccc3c2Sc2ccc(Cl)cc2)cc1)C(F)(F)F (stereo not drawn) [Example A12] | 5.29 nM | 27 nM |
| OCc1ccc(-c2[nH]c3ncccc3c2Sc2ccc(Cl)cc2)cc1 [Example A29] | 16.9 nM | 132 nM |
| CCNC(=O)C1CC=C(c2[nH]c3ncccc3c2Sc2ccc(Cl)cc2)CC1 (stereo not drawn) [Example B48] | 9.5 nM | 29.1 nM |
| O=C(c1[nH]c2ncccc2c1Sc1ccc(Cl)cc1)N1CCc2ccncc21 [Example C12] | 2080 nM | 2680 nM |
| N#Cc1ccccc1-c1[nH]c2ncccc2c1Sc1ccc(Cl)cc1 [Example F8] | 12.2 nM | 69.4 nM |
| Nc1ccc(-c2[nH]c3ncccc3c2Sc2ccc(Cl)cc2)cc1 [Example A27] | 5.56 nM | 124 nM |
| COc1ccc(NC(=O)c2[nH]c3ncccc3c2Sc2ccc(Cl)cc2)cn1 [Example C8] | 42.9 nM | 272 nM |
| CSc1ccc(-c2[nH]c3ncccc3c2Sc2ccc(Cl)cc2)cc1 [Example A10] | 0.872 nM | 7.67 nM |
| Clc1ccc(Sc2c(C3=CCCC3)[nH]c3ncccc23)cc1 [Example B15] | 107 nM | 1110 nM |
